Measured values reported in patent US20220370416A1, “COMPOUNDS AND METHODS FOR TARGETED DEGRADATION OF KRAS” (Arvinas Operations, Inc., priority 2020, published 2022).

How the values were obtained:
HiBit-KRAS^G12C [1] = molecular target: T1, HiBit-KRAS^G12C (Homo sapiens, UniProt P01116, G12C); test: HiBit degradation assay in SW1573 HiBit-KRas^G12C cells; format: cell-based; parameters: expressed in transfected cells; host or cells: SW1573 (clone E6), modified pcDNA3.1 vector, TK promoter; settings: SW1573 HiBit-KRas^G12C, 24 hours; for DC50: read-out: KRas^G12C-HIBit (SW1573; 0.1% DMSO) DC50*
Outline: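 HiBit-KRAS G12C degradation was measured after a 24 h compound exposure (titrated 10 μM–20 nM) in engineered SW1573 cells. Lytic HiBit luminescence, expressed relative to DMSO controls, yielded DC50 and Dmax from 4-parameter fits. Concentrations causing ≥50% loss in alamar blue viability were omitted as cytotoxic.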

HiBit-KRAS^G12C [2] = molecular target: T1, HiBit-KRAS^G12C; test: HiBit degradation assay in MiaPaCa-2 HiBit-KRas^G12C cells; format: cell-based; settings: MiaPaCa-2 HiBit-KRas^G12C cells, 24 hours, maximum degradation
Outline: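 DC50 and Dmax come from 4-parameter fits of DMSO-normalized HiBit luminescence after 24 hours' exposure at 37° C to 10 μM–20 nM compound in 0.1% or 0.5% DMSO. Cells: MiaPaCa-2 carrying one endogenously HiBit-tagged KRAS^G12C allele; concentrations causing ≥50% […] viability loss (alamar blue) excluded.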

[3] = SW1573, read-out: KRas^G12C-HiBit (SW1573; 0.1% DMSO) Dmax**, 0.1% DMSO
[4] = MIA PaCa-2, read-out: KRas^G12C-HiBiT (MiaPaCa; 0.1% DMSO) DMax, 0.1% DMSO
[5] = SW1573, read-out: KRas^G12C-HiBiT (SW1573; 0.5% DMSO) Dmax**, 0.5% DMSO
[6] = MIA PaCa-2, read-out: KRas^G12C-HiBiT (MiaPaCa; 0.5% DMSO) DMax, 0.5% DMSO

T1 sequence (P01116 1-186 isoform P01116-2 G12C limits assumed): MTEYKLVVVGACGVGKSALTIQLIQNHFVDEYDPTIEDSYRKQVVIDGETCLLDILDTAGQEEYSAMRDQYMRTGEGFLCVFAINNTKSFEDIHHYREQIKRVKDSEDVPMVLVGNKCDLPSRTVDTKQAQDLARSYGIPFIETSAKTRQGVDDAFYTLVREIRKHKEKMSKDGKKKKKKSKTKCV

SMILES | Dmax (HiBit-KRAS^G12C [1]; [3]) [%] | DC50 (HiBit-KRAS^G12C [1]; 0.1% DMSO) [nM] | Dmax (HiBit-KRAS^G12C [2]; [4]) [%] | Dmax (HiBit-KRAS^G12C [1]; [5]) [%] | Dmax (HiBit-KRAS^G12C [2]; [6]) [%]
C=CC(=O)N1CCN(c2nc(O[C@H](C)CN3CCC(COCC(=O)N[C@H](C(=O)N4C[C@H](O)C[C@H]4C(=O)N[C@@H](C)c4ccc(-c5scnc5C)cc4)C(C)(C)C)CC3)nc3c(F)c(-c4cc(O)cc5cccc(C)c45)c(Cl)cc23)CC1 [Compound 11, (2S,4R)-1-[(2S)-2-[2-({1-[(2R)-2-{[6-chloro-8-fluoro-7-(3-hydroxy-8-methylnaphthalen-1-yl)-4-[4-(prop-2-enoyl)piperazin-1-yl]quinazolin-2-yl]oxy}propyl]piperidin-4-yl}methoxy)acetamido]-3,3-dimethylbutanoyl]-4-hydroxy-N-[(1S)-1-[4-(4-methyl-1,3-thiazol-5-yl)phenyl]ethyl]pyrrolidine-2-carboxamide] | 35 to 70 | 100 to 1000 | 35 to 70 |  | 
C=CC(=O)N1CCN(c2nc(O[C@H]3CCC[C@@H]3N3CCC(COCC(=O)N[C@H](C(=O)N4C[C@H](O)C[C@H]4C(=O)N[C@@H](C)c4ccc(-c5scnc5C)cc4)C(C)(C)C)CC3)nc3c(F)c(-c4cc(O)cc5ccccc45)c(Cl)cc23)CC1 [Compound 12, (2S,4R)-1-[(2S)-2-[2-({1-[(1S,2S)-2-{[6-chloro-8-fluoro-7-(3-hydroxynaphthalen-1-yl)-4-[4-(prop-2-enoyl)piperazin-1-yl]quinazolin-2-yl]oxy}cyclopentyl]piperidin-4-yl}methoxy)acetamido]-3,3-dimethylbutanoyl]-4-hydroxy-N-[(1S)-1-[4-(4-methyl-1,3-thiazol-5-yl)phenyl]ethyl]pyrrolidine-2-carboxamide] | 35 to 70 | 100 to 1000 | < 35 | 35 to 70 | < 35
C=CC(=O)N1CCN(c2nc(O[C@@H]3CCC[C@H]3N3CCC(COCC(=O)N[C@H](C(=O)N4C[C@H](O)C[C@H]4C(=O)N[C@@H](C)c4ccc(-c5scnc5C)cc4)C(C)(C)C)CC3)nc3c(F)c(-c4cc(O)cc5ccccc45)c(Cl)cc23)CC1 [Compound 13, (2S,4R)-1-[(2S)-2-[2-({1-[(1R,2R)-2-{[6-chloro-8-fluoro-7-(3-hydroxynaphthalen-1-yl)-4-[4-(prop-2-enoyl)piperazin-1-yl]quinazolin-2-yl]oxy}cyclopentyl]piperidin-4-yl}methoxy)acetamido]-3,3-dimethylbutanoyl]-4-hydroxy-N-[(1S)-1-[4-(4-methyl-1,3-thiazol-5-yl)phenyl]ethyl]pyrrolidine-2-carboxamide] | 35 to 70 | 100 to 1000 | 35 to 70 | 35 to 70 | 35 to 70
C=C(F)C(=O)N1CCN(c2nc(OCCN3CCC(COCC(=O)N[C@H](C(=O)N4C[C@H](O)C[C@H]4C(=O)N[C@@H](C)c4ccc(-c5scnc5C)cc4)C(C)(C)C)CC3)nc3c(F)c(-c4cc(O)cc5ccccc45)c(Cl)cc23)C[C@@H]1CC#N [Compound 15, (2S,4R)-1-[(2S)-2-[2-({1-[2-({6-chloro-4-[(3S)-3-(cyanomethyl)-4-(2-fluoroprop-2-enoyl)piperazin-1-yl]-8-fluoro-7-(3-hydroxynaphthalen-1-yl)quinazolin-2-yl}oxy)ethyl]piperidin-4-yl}methoxy)acetamido]-3,3-dimethylbutanoyl]-4-hydroxy-N-[(1S)-1-[4-(4-methyl-1,3-thiazol-5-yl)phenyl]ethyl]pyrrolidine-2-carboxamide] | > 70 | 100 to 1000 | 35 to 70 |  | 
